Eight compounds from patent US12037324B2, “Biarylmethyl heterocycles” (Université de Montréal, priority 2016, dated 2024) can be followed below.

pEC50: −log10 of the molar value.

For orientation: pEC50 means the EC50 on a negative log10 scale, so that one unit is a factor of ten.

Experiment [1] deals with T1, hAT1R (Homo sapiens, UniProt P30556).
T1 sequence (P30556 1-359): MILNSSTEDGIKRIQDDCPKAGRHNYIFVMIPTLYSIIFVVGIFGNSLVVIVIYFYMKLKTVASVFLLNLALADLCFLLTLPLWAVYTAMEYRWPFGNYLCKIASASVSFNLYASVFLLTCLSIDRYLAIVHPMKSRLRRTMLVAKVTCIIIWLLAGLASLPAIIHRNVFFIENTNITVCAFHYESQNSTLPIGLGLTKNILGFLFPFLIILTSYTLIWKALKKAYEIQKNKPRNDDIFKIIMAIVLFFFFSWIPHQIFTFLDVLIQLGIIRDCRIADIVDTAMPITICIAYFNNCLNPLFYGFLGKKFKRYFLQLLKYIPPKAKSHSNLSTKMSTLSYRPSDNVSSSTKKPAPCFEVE
Description: cell-based. The conditions noted are these: section of the 42nd table ending at r951, example numbering restarts after the DiscoveRx section; read-out: β-arrestin2 EC50.

For experiment [2], the target named is T1, hAT1R. As to the kind of experiment: BRET Gq biosensor assay, agonist response, HEK293 cells. The class given is cell-based. The conditions noted are these: section of the 42nd table directly before the BRET P63 section. In short, it runs like this: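 Agonist EC50 derived from a 4-parameter fit of BRET2 ratio (GFP 515 nm/Rluc 410 nm), scaled between unstimulated control and maximal AngII response. Readings taken 5 min after compound addition at room temperature, with 2 μM coelenterazine, in HEK293 cells expressing hAT1R, Gαq-Rluc, Gβ1 and GFP-Gγ1 (transfected two days earlier).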
On the technique in general: Bioluminescence resonance energy transfer reports proximity on the nanometre scale.

For experiment [3], the target named is T1, hAT1R. Description: BRET β-arrestin2 biosensor assay, higher receptor expression (hAT1R 5 ng/well), HEK293 cells. The class given is cell-based. The conditions noted are these: for pEC50: High AT1R Expression.
The target in experiment [4] is T1, hAT1R. Description: cell-based. The conditions noted are these: agonist mode; for pEC50: read-out: BRET P63 EC50.
The next experiment addresses T2, AGTR1 (Homo sapiens, UniProt P30556).
T2 construct: host or cells: Pathunter CHO-K1 AGTR1 β-arrestin cell line (CHO-K1)
T2 sequence (P30556 1-359): T1 sequence (P30556 1-359)
Description: DiscoveRx β-arrestin2 recruitment assay (enzyme complementation, Pathunter CHO-K1 AGTR1 β-arrestin cell line). The class given is cell-based. The conditions noted are these: DiscoveRx β-arrestin2 recruitment. In short, it runs like this: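 Chemiluminescent enzyme-complementation read-out of β-arrestin2 recruitment to AGTR1 in engineered CHO-K1 cells after 90 min compound exposure at 37° C. Values are 4-parameter logistic EC50s in agonist mode, IC50s in antagonist mode, with efficacy relative to the maximal All response.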
On the technique in general: Arrestin recruitment assays detect the binding of arrestin to an activated receptor.

Consider `CCCCc1ncc(C(=O)NCc2cnn(C)c2)n1Cc1ccc(-c2cc(-c3ccccc3)ccc2-c2nn[nH]n2)cc1` [Example 346], for which the pEC50 is 7.95 on hAT1R [1]; 7.17 on hAT1R [2]; 8.15 at hAT1R [3]; 7.71 on hAT1R [4]; 7.89 on AGTR1. Moreover, the “BRET β-Arrestin2 High AT1R Expression Ymax (%)” value on hAT1R [3] is on record as 92.1%. Also, the “BRET P63 Ymax” value at hAT1R [4] stood at 6.0%. Moreover, the “DiscoveRx β-arrestin2 Ymax (%)” value at AGTR1 (maximal response) is reported as 44.5%.
As for `CCCCC(=O)N(Cc1ccc(-c2cc(-c3cc(C)ccn3)ccc2-c2nn[nH]n2)cc1)C1(C(=O)O)CCCCC1` [Example 295], the pEC50 at hAT1R [1] is 7.41; on hAT1R [2], 6.66; on hAT1R [3], 7.85; at hAT1R [4] it was 6.92; at AGTR1, 7.32. Moreover, on hAT1R [3], the “BRET β-Arrestin2 High AT1R Expression Ymax (%)” value was determined as 92.5%. Besides, the “BRET P63 Ymax” value at hAT1R [4] is reported as 12.9%. Also, the “DiscoveRx β-arrestin2 Ymax (%)” value at AGTR1 (maximal response) amounted to 60.3%.
Regarding `CCOc1nc2cccc(C(=O)O)c2n1Cc1ccc(-c2cc(-c3cccc(C)c3)ccc2C(=O)O)cc1` [Example 313, 1-((6′-carboxy-3″-methyl-[1,1′:3′,1″-terphenyl]-4-yl)methyl)-2-ethoxy-1H-benzo[d]imidazole-7-carboxylic acid], the pEC50 at hAT1R [1] is 7.67; on hAT1R [2], 7.09; at hAT1R [3], 8.11; at hAT1R [4], 7.33; at AGTR1 it was 7.55. The “BRET β-Arrestin2 High AT1R Expression Ymax (%)” value on hAT1R [3] came out at 92.9%. The “BRET P63 Ymax” value at hAT1R [4] is 6.3%. The “DiscoveRx β-arrestin2 Ymax (%)” value at AGTR1 (maximal response) amounted to 46.1%.
Take `CCCCC(=O)N(Cc1ccc(-c2cc(-c3cc(C)ccn3)ccc2-c2nn[nH]n2)cc1)[C@H](C(=O)O)C(C)C` [Example 445]: the negative logarithm of the EC50 (pEC50) is 7.44 at hAT1R [1]; 6.85 at hAT1R [2]; 8.01 on hAT1R [3]; 6.99 at hAT1R [4]; 7.42 on AGTR1. For the same compound, the “BRET β-Arrestin2 High AT1R Expression Ymax (%)” value at hAT1R [3] is 91.3%. For the same compound, the “BRET P63 Ymax” value at hAT1R [4] came out at 24.0%. Moreover, the “DiscoveRx β-arrestin2 Ymax (%)” value on AGTR1 came to 61.2%.
Regarding `CCCCc1nc(Cl)c(C(=O)O)n1Cc1ccc(-c2cc(C3CCCCC3)ccc2-c2nn[nH]n2)cc1` [Example 424, 2-butyl-4-chloro-1-((5′-cyclohexyl-2′-(2H-tetrazol-5-yl)-[1,1′-biphenyl]-4-yl)methyl)-1H-imidazole-5-carboxylic acid], the pEC50 is 7.45 on hAT1R [1]; 5.55 on hAT1R [2]; 7.17 at hAT1R [3]; less than 4.00 on hAT1R [4]; 7.00 at AGTR1. Also, the “BRET β-Arrestin2 High AT1R Expression Ymax (%)” value at hAT1R [3] was determined as 76.7%. At AGTR1 (maximal response), the “DiscoveRx β-arrestin2 Ymax (%)” value was 28.6%.
For the compound `CCOc1nc2cccc(C(=O)O)c2n1Cc1ccc(-c2cc(-c3c[nH]c4ccccc34)ccc2-c2noc(=O)[nH]2)cc1` [Example 322], the pEC50 was 8.01 on hAT1R [1]; 7.03 at hAT1R [2]; 8.08 at hAT1R [3]; 7.27 on hAT1R [4]; 7.41 on AGTR1. For the same compound, on hAT1R [3], the “BRET β-Arrestin2 High AT1R Expression Ymax (%)” value stood at 80.9%. Moreover, on hAT1R [4], the “BRET P63 Ymax” value stood at 5.1%. The “DiscoveRx β-arrestin2 Ymax (%)” value on AGTR1 (maximal response) worked out at 33.7%.
Turning to `CCCCc1nc(Cl)c(C(=O)O)n1Cc1ccc(-c2cc(-c3cn(C(C)C)nc3C(F)(F)F)ccc2-c2nn[nH]n2)cc1` [Example 388], the negative logarithm of the EC50 (pEC50) is 7.57 on hAT1R [1]; 6.09 on hAT1R [2]; 8.34 on hAT1R [3]; 7.40 at hAT1R [4]; 7.35 on AGTR1. Also, the “BRET β-Arrestin2 High AT1R Expression Ymax (%)” value at hAT1R [3] is recorded as 96.2%. Also, at hAT1R [4], the “BRET P63 Ymax” value came out at 30.4%. For the same compound, the “DiscoveRx β-arrestin2 Ymax (%)” value at AGTR1 (maximal response) is listed as 71.7%.
On to `CCCCc1nc(Cl)c(C(=O)O)n1Cc1ccc(-c2cc(-c3ccccc3)ccc2-c2nn[nH]n2)cc1` [Example 384, 1-((6′-(2H-tetrazol-5-yl)-[1,1′:3′,1″-terphenyl]-4-yl)methyl)-2-butyl-4-chloro-1H-imidazole-5-carboxylic acid], for which the pEC50 is 7.97 at hAT1R [1]; 7.41 at hAT1R [2]; 8.16 at hAT1R [3]; less than 5.00 on hAT1R [4]; 8.10 at AGTR1. At hAT1R [3], the “BRET β-Arrestin2 High AT1R Expression Ymax (%)” value came to 83.8%. For the same compound, the “DiscoveRx β-arrestin2 Ymax (%)” value at AGTR1 (maximal response) came out at 49.3%.
